The text below walks through data of patent US11786534B2 (TAIHO PHARMACEUTICAL CO., LTD., priority 2019, dated 2023).

What all share (type): biochemical
Test [1] concerns the target T1, human EGFR (L858R/C797S) (Homo sapiens, UniProt P00533, C797S/L858R).
T1 construct: purchased SignalChem
Briefly: Inhibitory activity against EGFR (L858R/C797S) kinase. Here is the method:
4) Measurement of inhibitory activity against EGFR (L858R/C797S) kinase
The compounds of the present invention were measured for their inhibitory activity aeainst EGFR (L858R/C797S) kinase activity.
The materials, measurement procedures and data analysis method used in this test are stibstantially the same as those shown in the section “Measurement of inhibitory activity against EGFR (d746-750/C797S) kinase.” However, among the materials, the kinase protein used was a purified recombinant human EGFR (C797S/L858R) protein purchased from SignalChem. In the measurement procedures, the final concentration of ATP was set to 4 μM, and the incubation time for kinase reaction was set to 90 minutes. Finally, data analysis was conducted determine the IC50 value (nM) of each compound against EGFR (L858R/C797S).
In accordance with the same procedures as shown in 4) in Test Example 1, the compounds of the present invention were measured for their inhibitor activity against. EGFR (L858R/C797S) kinase activity.

The target of test [2] is T2, human EGFR (WT) (Homo sapiens, UniProt P00533).
T2 construct: purchased Carna Biosciences Inc., Japan
The experiment in a line: Inhibitory activity against EGFR (WT) kinase. As for the experimental part:
The compounds of the present invention were measured for their inhibitory activity nainst EGFR (WT) kinase activity.
The materials, measurement procedures and data analysis method used in this test. are substantially the same as those shown in the section “Measurement of inhibitory activity against EGFR (d746-750/T790M/C797S) kinase.” However, among the materials, the kinase protein used was a purified recombinant human EGFR (WT) purchased from Carna Biosciences Inc., Japan. In the measurement procedures, the final concentration of ATP was set to 1.5 μM. Finally, data analysis was conducted to determine the IC50 value (nM) of each compound against EGFR (WT).
In accordance with the same procedures as shown in 5) in Test Example 1, the compounds of the present invention were measured for their inhibitory activity against. EGFR (WT) kinase activity.

Test [3] concerns the target T3, human EGFR (L858R/T790M/C797S) (Homo sapiens, UniProt P00533, C797S/L858R/T790M).
T3 construct: made in house; host or cells: Sf9 insect cells, baculovirus
Briefly: Inhibitory activity against EGFR (L858R/T790M/C797S) kinase. Here is the method: 2) Measurement of inhibitory activity against EGFR (L858R/T790M/C797S) kinase
The compounds of the presein invention were measured for their inhibitory activity against EGFR (L858R/T790M/C797S) kinase activity.
The materials, measurement procedures and data analysis method used in this test are substantially the same as those shown in the section “Measurement of inhibitory activity against EGFR (d746-750/T790M/C797S) kinase.” However, among the materials, the kinase protein (SEQ ID NO: 2) used was prepared as follows: the cytoplasmic domain of human EGFR (L858R/T790M/C797S) fused at the amino terminal end with a GST tag was expressed in insect cells (Sf9) by the baculovirus expression system and then purified on a glutathione sepharose column. In the measurement procedures, the final concentration of ATP was set to 0.5 μM. Finally, data analysis was conducted to determine the IC50 value (nM) of each compound against EGFR (L858R/T790M/C797S).
In accordance with the same procedures as shown in 2) in Test Example 1, the compounds of the present invention were measured for their inhibitory activity against EGFR (L858R/T790M/C797S) kinase activity.

The target of test [4] is T4, human EGFR (d746-750/C797S) (Homo sapiens, UniProt P00533, C797S/DEL746-750).
T4 construct: purchased SignalChem
Briefly: Inhibitory activity against EGFR (d746-750/C797S) kinase. Here is the method: 3) Measurement of inhibitory activity against EGFR (d746-750/C797S) kinase
The compounds of the present invention were measured for their inhibitory activity against EGFR (d746-750/C797S) kinase activity.
The materials, measurement procedures and data analysis method used in this test are substantially the same as those shown in the section “Measurement of inhibitory activity aiainst EGFR (d746-750/T790M/C797S) kinase.” However, among the materials, the kinase protein used was a purified recombinant human EGFR (d746-750/C797S) protein purchased from SignalChem, while the kinase reaction buffer used was 13.5 mM Tris (pH 7.5) containing 2 mM dithiothreitol and 0.009% Tween-20. In the measurement procedures, the final concentration of ATP was set to 14 μM, the final concentration of maganesium chloride was set to 20 mM, the final concentration of manganese chloride was set to 12.5 mM, the incubation time for kinase reaction was set to 60 minutes, and the final concentration of EDTA used to stop the kinase reaction was set to 40 mM. Finally, data analysis was conducted to determine to IC50 value (nM) of each compound against EGFR (d746-750/C797S).
In accordance with the same procedures as shown in 3) in Test Example 1, the compounds of the present invention were measured for their inhibitory activity against EGFR (d746-750/C797S) kinase activity.

The target in test [5] is T5, human EGFR (d746-750/T790M/C797S) (Homo sapiens, UniProt P00533, C797S/DEL746-750/T790M).
T5 construct: made in house; host or cells: Sf9 insect cells, baculovirus
Briefly: Inhibitory activity against EGFR (d746-750/T790M/C797S) kinase. Here is the method: 1) Measurement of inhibitory activity against EGFR (d746-750/T790M/C797S) kinase
The compounds of the above examples and comparative examples were measured for their inhibitory activity against EGFR (d746-750/T790M/C797S) kinase activity. Among the materials required for measurement of this inhibitory activity, the kinase protein (SEQ ID NO: 1) used was prepared as follows: the cytoplasmic domain of human EGFR (d746-750/T790M/C797S) fused at the ammo terminal end with a glutathione-S-transferase (GST) tag was expressed M insect cells (Sf9) by the baculovirus expression system and then purified an a glutathione sepharose column. For use as a substrate peptide, a peptide biotinylated at the N-terminal end (biotin -EEPLYWSFPAKKK) was synthesized by reference to Perkin Elmer LabChip® series reagent FL-Peptide 22.
Procedures for measurement of the inhibitory activity are as follows. First, the compounds of the present invention were each dissolved in dimethyl sulfoxide (DMSO), and their serial dilutions were then prepared with DMSO. Secondly, each compound serial dilution (final concentration of DMSO during kinase reaction: 2.5%) or DMSO (final concentration: 2.5%) was mixed with a solution containing the substrate peptide (final concentration: 250 nM), magnesium chloride (final concentration: 10 mM), manganese chloride (final concentration: 10 mM) and ATP (final concentration: 6 μM) in a kinase reaction buffer (Carna Biosciences Inc., Japan), and the EGFR (d746-750/T790M/C797S) protein was further added thereto, followed by incubation at 25° C. for 120 minutes to cause kinase reaction. To the reaction solution, EDTA was added to give a final concentration of 24 mM to thereby stop the reaction, followed by addition of a phospholylated tyrosine detection solution containing europium-labeled anti-phosphorylated tyrosine antibody PT66 (Perkin Elmer) and SureLight APC-SA (Perkin Elmer). The reaction solution was allowed to stand at room temperature for 2 hours or longer. As a background, DMSO was used instead of each compound solution in .DMSO, and EDIA was added prior to the addition of the EGFR EGFR (d746-750/T790M/C797S) protein, followed by incubation at 25° C. for 120 minutes. The same detection solution was also added to this reaction solution, which was then allowed to stand for 2 hours or longer. Finally, all the test samples were measured with a PHERAstar FS reader (BMG LABTECH) for their fluorescence intensity at two wavelengths of 620 nm and 665 nm upon irradiation with an excitation light of 337 nm wavelength, and the ratio of fluorescence intensities at these two wavelengths was obtained as data for each compound.
Moreover, as control compounds, the above Comparative Example A (Example 3 in WO2013/118817) and Comparative Example B (Example 35 in WO2013/118817) known to have EGFR inhibitory activity were used.
In accordance with the same procedures as shown in 1) in Test Example 1, the compounds of the above examples were measured for their inhibitory activity against EGFR (d746-750/T790M/C797S) kinase activity.

Setting [6] is: Test Example 1, Table 5, ATP 4 μM, 90 minutes.
Where [7] appears, read: Test Example 1, Table 6, ATP 1.5 μM.
Where [8] appears, read: Test Example 1, Table 3, ATP 0.5 μM.
The mark [9] stands for this setting: Test Example 1, Table 4, ATP 14 μM, 60 minutes.
Setting [10] is: Test Example 1, Table 2, ATP 6 μM, 25° C., 120 minutes.

T2 sequence (P00533 25-1210): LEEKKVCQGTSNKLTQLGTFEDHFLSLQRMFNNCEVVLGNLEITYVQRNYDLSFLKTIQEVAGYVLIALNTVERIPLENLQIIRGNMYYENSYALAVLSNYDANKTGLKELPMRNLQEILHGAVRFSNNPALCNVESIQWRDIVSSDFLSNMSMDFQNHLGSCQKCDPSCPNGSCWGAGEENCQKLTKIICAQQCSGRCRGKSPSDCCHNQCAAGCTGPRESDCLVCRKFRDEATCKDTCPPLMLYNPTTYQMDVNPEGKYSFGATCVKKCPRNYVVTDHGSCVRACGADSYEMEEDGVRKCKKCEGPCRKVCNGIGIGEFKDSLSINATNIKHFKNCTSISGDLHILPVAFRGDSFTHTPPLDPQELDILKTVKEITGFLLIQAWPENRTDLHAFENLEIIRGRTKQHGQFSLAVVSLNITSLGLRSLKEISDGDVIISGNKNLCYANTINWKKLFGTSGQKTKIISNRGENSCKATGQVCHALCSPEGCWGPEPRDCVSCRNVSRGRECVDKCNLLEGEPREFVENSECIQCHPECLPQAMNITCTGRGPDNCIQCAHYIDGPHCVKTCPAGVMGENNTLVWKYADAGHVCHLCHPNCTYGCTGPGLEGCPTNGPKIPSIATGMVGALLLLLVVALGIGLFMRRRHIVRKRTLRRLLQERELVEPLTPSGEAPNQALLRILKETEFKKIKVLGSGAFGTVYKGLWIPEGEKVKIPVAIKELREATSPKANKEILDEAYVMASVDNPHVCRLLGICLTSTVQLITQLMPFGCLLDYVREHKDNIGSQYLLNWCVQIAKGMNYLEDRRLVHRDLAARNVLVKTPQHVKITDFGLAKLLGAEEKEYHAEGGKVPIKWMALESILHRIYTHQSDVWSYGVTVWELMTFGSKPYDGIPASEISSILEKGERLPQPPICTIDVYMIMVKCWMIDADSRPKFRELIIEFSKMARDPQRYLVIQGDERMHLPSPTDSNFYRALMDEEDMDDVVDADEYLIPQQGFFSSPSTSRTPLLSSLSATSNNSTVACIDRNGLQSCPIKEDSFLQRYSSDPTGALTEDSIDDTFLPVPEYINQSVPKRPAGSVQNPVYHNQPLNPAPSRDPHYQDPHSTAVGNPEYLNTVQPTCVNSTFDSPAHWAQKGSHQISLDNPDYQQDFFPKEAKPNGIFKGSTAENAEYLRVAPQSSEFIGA
T4 sequence (P00533 with tags, fused parts or gaps DEL746-750/C797S): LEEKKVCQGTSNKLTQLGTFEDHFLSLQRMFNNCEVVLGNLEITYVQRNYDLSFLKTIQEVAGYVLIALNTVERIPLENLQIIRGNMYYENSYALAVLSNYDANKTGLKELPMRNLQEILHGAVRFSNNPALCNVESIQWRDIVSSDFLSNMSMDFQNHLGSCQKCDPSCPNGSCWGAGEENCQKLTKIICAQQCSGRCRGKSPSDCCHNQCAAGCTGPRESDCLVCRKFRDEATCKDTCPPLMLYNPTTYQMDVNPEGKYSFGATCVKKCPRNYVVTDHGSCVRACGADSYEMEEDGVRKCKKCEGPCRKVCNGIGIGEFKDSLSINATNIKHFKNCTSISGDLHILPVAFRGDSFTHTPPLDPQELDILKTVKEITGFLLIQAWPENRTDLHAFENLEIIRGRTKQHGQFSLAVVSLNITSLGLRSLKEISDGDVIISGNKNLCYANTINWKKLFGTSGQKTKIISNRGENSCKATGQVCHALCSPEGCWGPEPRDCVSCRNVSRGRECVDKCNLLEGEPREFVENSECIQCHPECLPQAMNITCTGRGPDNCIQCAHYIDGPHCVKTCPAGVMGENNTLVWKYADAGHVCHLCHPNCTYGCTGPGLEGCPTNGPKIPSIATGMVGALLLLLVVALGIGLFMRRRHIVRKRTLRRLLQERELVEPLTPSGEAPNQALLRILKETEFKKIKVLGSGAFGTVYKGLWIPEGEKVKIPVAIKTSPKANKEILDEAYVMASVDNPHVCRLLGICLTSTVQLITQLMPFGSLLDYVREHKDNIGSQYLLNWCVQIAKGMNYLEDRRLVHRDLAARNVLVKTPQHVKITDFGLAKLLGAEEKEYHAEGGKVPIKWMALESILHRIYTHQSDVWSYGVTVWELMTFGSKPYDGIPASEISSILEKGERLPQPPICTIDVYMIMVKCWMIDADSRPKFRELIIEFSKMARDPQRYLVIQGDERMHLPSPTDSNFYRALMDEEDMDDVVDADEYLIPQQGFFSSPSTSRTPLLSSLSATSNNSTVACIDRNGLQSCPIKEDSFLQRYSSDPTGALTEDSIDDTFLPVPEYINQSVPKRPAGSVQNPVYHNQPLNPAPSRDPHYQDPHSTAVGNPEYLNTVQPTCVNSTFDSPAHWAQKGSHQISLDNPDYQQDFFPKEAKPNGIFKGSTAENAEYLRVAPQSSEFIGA
T3 sequence (P00533 with tags, fused parts or gaps T790M/C797S/L858R): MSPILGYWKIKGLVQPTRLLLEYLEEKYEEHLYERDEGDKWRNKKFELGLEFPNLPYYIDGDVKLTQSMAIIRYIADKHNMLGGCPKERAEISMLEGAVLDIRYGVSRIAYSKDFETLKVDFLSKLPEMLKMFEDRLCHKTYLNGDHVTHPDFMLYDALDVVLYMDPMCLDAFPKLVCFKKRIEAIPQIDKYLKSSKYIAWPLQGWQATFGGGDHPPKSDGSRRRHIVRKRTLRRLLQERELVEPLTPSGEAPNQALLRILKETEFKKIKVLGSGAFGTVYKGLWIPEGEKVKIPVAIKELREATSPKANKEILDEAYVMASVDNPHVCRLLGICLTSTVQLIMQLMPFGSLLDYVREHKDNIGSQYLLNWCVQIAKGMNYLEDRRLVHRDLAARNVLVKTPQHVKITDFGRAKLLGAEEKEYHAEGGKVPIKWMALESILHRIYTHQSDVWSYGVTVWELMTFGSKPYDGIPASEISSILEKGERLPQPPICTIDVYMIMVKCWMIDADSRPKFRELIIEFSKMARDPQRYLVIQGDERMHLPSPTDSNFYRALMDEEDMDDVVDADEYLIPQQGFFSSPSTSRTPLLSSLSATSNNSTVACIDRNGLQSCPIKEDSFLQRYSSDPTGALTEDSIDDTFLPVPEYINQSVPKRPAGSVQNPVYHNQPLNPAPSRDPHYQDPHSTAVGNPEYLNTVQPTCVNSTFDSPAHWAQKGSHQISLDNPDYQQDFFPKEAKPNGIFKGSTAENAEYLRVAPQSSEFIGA
T1 sequence (P00533 25-1210 C797S/L858R): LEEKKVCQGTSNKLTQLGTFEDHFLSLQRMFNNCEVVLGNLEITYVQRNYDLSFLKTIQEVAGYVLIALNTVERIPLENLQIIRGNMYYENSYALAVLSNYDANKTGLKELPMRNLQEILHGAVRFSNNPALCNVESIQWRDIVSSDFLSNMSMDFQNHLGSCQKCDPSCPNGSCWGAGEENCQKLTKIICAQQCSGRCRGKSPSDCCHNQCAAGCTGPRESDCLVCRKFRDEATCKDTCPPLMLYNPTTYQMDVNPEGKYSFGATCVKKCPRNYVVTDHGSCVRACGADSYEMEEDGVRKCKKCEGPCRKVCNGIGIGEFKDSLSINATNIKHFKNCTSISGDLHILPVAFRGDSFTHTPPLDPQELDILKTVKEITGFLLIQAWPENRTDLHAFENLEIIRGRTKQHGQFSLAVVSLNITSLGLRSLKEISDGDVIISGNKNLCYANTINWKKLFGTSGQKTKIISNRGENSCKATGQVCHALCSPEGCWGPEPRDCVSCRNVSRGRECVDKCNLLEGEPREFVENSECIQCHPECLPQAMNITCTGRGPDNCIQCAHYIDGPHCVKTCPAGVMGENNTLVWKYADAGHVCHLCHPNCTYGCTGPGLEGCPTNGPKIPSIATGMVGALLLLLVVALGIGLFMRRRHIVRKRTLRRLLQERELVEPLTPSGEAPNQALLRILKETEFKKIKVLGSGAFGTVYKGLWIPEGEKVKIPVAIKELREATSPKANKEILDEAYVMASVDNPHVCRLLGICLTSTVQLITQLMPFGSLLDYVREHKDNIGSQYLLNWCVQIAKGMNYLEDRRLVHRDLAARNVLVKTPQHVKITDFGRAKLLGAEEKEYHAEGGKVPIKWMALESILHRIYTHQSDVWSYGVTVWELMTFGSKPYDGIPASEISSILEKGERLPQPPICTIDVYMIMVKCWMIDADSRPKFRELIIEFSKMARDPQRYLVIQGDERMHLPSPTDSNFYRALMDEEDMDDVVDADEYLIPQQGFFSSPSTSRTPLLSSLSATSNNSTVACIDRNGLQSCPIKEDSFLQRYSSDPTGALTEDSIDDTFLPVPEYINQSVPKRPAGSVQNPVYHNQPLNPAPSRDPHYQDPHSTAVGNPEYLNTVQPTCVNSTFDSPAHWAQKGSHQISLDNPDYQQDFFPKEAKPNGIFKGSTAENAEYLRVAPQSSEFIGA
T5 sequence (P00533 with tags, fused parts or gaps DEL746-750/T790M/C797S): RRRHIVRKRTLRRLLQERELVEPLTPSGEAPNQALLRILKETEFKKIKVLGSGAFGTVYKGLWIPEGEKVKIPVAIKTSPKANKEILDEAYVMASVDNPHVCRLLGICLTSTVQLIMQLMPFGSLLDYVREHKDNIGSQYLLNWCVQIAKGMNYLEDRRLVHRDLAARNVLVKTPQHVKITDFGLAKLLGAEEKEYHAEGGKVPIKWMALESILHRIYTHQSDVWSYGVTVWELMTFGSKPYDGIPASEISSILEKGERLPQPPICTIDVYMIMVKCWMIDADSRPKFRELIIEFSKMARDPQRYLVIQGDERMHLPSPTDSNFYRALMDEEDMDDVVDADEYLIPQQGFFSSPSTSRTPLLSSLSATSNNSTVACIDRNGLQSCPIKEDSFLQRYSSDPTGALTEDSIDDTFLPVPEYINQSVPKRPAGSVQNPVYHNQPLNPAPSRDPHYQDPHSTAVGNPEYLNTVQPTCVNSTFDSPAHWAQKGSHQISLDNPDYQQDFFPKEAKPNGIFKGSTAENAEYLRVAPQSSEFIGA

Turning to `C#Cc1c(-c2cnc3ccccc3c2)c2c(N)ncnc2n1C12CCC(NC(=O)c3cncn(C)c3=O)(CC1)C2` [Example 25, N-(4-(4-Amino-6-ethynyl-5-(quinolin-3-yl)-7H-pyrrolo[2,3-d]pyrimidin-7-yl)bicyclo-[2.2.1]heptan-1-yl)-1-methyl-6-oxo-1,6-dihydropyrimidine-5-carboxamide], the IC50 – broadly, the point on the concentration scale where inhibition reaches its midpoint – in test [1] (setting [6]) was 590 pM; in test [2] (setting [7]), 510 pM; in test [3] (setting [8]), 600 pM; in test [4] (setting [9]) it was 400 pM; in test [5] (setting [10]) it was less than 300 pM.
The matching figures for `C#Cc1c(-c2cnc3ccccc3c2)c2c(N)ncnc2n1C12CCC(NC(=O)c3ncccn3)(CC1)C2` [Example 51]: 990 pM, 940 pM, 340 pM, 830 pM and less than 300 pM.
With `C#Cc1c(-c2cnc3ccccc3c2)c2c(N)ncnc2n1C12CCC(NC(=O)c3cnc(CN(C)C)cn3)(CC1)C2` [Example 68, N-(4-(4-Amino-6-ethynyl-5-(quinolin-3-yl)-7H-pyrrolo[2,3-d]pyrimidin-7-yl)bicyclo-[2.2.1]heptan-1-yl)-5-((dimethylamino)methyl)pyrazine-2-carboxamide], the IC50 in test [1] (Test Example 3, Table 11; same procedures as 4) in Test Example 1) was 360 pM; in test [2] (Test Example 3, Table 12; same procedures as 5) in Test Example 1), 430 pM; in test [3] (Test Example 3, Table 9; same procedures as 2) in Test Example 1) it was less than 300 pM; in test [4] (Test Example 3, Table 10; same procedures as 3) in Test Example 1) it was less than 300 pM; in test [5] (Test Example 3, Table 8; same procedures as 1) in Test Example 1) it was less than 300 pM.
As for `C#Cc1c(-c2cnc3ccccc3c2)c2c(N)ncnc2n1C12CCC(NC(=O)c3cncc(OCF)n3)(CC1)C2` [Example 38, N-(4-(4-Amino-6-ethynyl-5-(quinolin-3-yl)-7H-pyrrolo[2,3-d]pyrimidin-7-yl)-bicyclo-[2.2.1]heptan-1-yl)-6-(fluoromethoxy)pyrazine-2-carboxamide], the IC50 in test [1] (setting [6]) is 970 pM; in test [2] (setting [7]), 1600 pM; in test [3] (setting [8]), 660 pM; in test [4] (setting [9]), 560 pM; in test [5] (setting [10]), less than 300 pM.
On to `C#Cc1c(-c2cnc3ccccc3c2)c2c(N)ncnc2n1C12CCC(NC(=O)c3ccnn3C)(CC1)CC2` [Example 6, N-(4-(4-Amino-6-ethynyl-5-(quinoiln-3-yl)-7H-pyrrolo[2,3-d]pyrimidin-7-yl)bicyclo-[2.2.2]octan-1-yl)-1-methyl-1H-pyrazole-5-carboxamide], for which the IC50 is 4600 pM in test [1] (setting [6]); 5200 pM in test [2] (setting [7]); 700 pM in test [3] (setting [8]); 2100 pM in test [4] (setting [9]); less than 300 pM in test [5] (setting [10]).
On to `C#Cc1c(-c2cnc3ccccc3c2)c2c(N)ncnc2n1C12CCC(NC(=O)c3cnccc3OC)(CC1)C2` [Example 31, N-(4-(4-Amino-6-ethynyl-5-(quinolin-3-yl)-7H-pyrrolo[2,3-d]pyrimidin-7-yl)bicyclo-[2.2.1]heptan-1-yl)-4-methoxynicotinamide], for which the IC50 in test [1] (setting [6]) was 620 pM; in test [2] (setting [7]), 1500 pM; in test [3] (setting [8]), 520 pM; in test [4] (setting [9]), 490 pM; in test [5] (setting [10]), less than 300 pM.
For `C#Cc1c(-c2cnc3ccccc3c2)c2c(N)ncnc2n1C12CCC(NC(=O)c3ccnn3-c3ccccc3)(CC1)C2` [Example 26, N-(4-(4-Amino-6-ethynyl-5-(quinolin-3-yl)-7H-pyrrolo[2,3-d]pyrimidin-7-yl)bicyclo-[2.2.1]heptan-1-yl)-1-phenyl-1H-pyrazole-5-carboxamide] the same measures were 840 pM, 2100 pM, 620 pM, 710 pM and less than 300 pM.
As to `C#Cc1c(-c2cnc3ccccc3c2)c2c(N)ncnc2n1C12CCC(N(C)C)(CC1)C2` [Example 11, 7-(4-(Dimethylamino)bicyclo[2.2.1]heptan-1-yl)-6-ethynyl-5-(quinolin-3-yl)-7H -pyrrolo[2,3-d]pyrimidine-4-amine], the IC50 in test [1] (setting [6]) was 2400 pM; in test [2] (setting [7]) it was 11000 pM; in test [3] (setting [8]), 690 pM; in test [4] (setting [9]), 1600 pM; in test [5] (setting [10]), less than 300 pM.
